Patent publication US4148785A, “Analgesic polypeptide” (American Home Products Corporation, priority 1978, dated 1979)
Where a SMILES comes first, the peptide text is derived from it. [ ]: non-standard residue; d: D form.

Columns and labels:
[1] = intracerebroventricular; cited from earlier work
rats = details: injection in the brain ventricle in rats; cited from earlier work
mouse vas deferens = details: cited from earlier work
guinea pig ileum = details: cited from earlier work
opiate receptor = details: brain homogenates; cited from earlier work
rat = rat tail flick test (method of D-Amour and Smith), analgesic activity; assay type: in vivo
Excerpt: The representative polypeptide of this invention Tyr--D--Ala--Gly--Phe--D--Val--NH2, gave the following results in the reference standard rat tail flick test: […]

Tyr--D--Ala--Gly--Phe--D--Leu
activity when administered intracerebroventricularly [1]: activity

H--Tyr--Gly--Gly--Phe--Leu--OH [leucine-enkephalin]
analgesia (rats): profound analgesia that is fully reversible by naloxone
block of electrically evoked contractions (mouse vas deferens): block electrically evoked contractions
block of electrically evoked contractions (guinea pig ileum): block electrically evoked contractions
inhibition of stereospecific receptor binding of 3H-naloxone (opiate receptor): inhibit the sterospecific receptor binding

CC(C)[C@@H](NC(=O)[C@H](Cc1ccccc1)NC(=O)CNC(=O)[C@@H](C)NC(=O)[C@@H](N)Cc1ccc(O)cc1)C(N)=O [Tyr--D--Ala--Gly--Phe--D--Val--NH2, L-tyrosyl-D-alanylglycyl-L-phenylalanyl-D-valine amide] (H-Y[dA]GF[dV]-NH2)
No. showing analgesia/No. tested (rat; intravenous 1.0 milligram/kilogram, 15 minutes after administration): 2/6
No. showing analgesia/No. tested (rat; intravenous 1.0 milligram/kilogram, 30 minutes after administration): 1/6
No. showing analgesia/No. tested (rat; intravenous 1.0 milligram/kilogram, 60 minutes after administration): 0/6
No. showing analgesia/No. tested (rat; intravenous 2.5 milligram/kilogram, 15 minutes after administration): 5/6
No. showing analgesia/No. tested (rat; intravenous 2.5 milligram/kilogram, 30 minutes after administration): 3/5
No. showing analgesia/No. tested (rat; intravenous 2.5 milligram/kilogram, 60 minutes after administration): 3/5
No. showing analgesia/No. tested (rat; intravenous 5.0 milligram/kilogram, 15 minutes after administration): 6/6
No. showing analgesia/No. tested (rat; intravenous 5.0 milligram/kilogram, 30 minutes after administration): 5/6
No. showing analgesia/No. tested (rat; intravenous 5.0 milligram/kilogram, 60 minutes after administration): 0/5
No. showing analgesia/No. tested (rat; intravenous .25 milligram/kilogram, 15 minutes after administration): 1/6
No. showing analgesia/No. tested (rat; intravenous .25 milligram/kilogram, 30 minutes after administration): 0/6
No. showing analgesia/No. tested (rat; intravenous .25 milligram/kilogram, 60 minutes after administration): 1/6
No. showing analgesia/No. tested (rat; intravenous .5 milligram/kilogram, 15 minutes after administration): 4/6
No. showing analgesia/No. tested (rat; intravenous .5 milligram/kilogram, 30 minutes after administration): 4/6
No. showing analgesia/No. tested (rat; intravenous .5 milligram/kilogram, 60 minutes after administration): 1/6
No. showing analgesia/No. tested (rat; subcutaneous 5.0 milligram/kilogram, 30 minutes after administration): 2/6
No. showing analgesia/No. tested (rat; subcutaneous 5.0 milligram/kilogram, 60 minutes after administration): 1/6
No. showing analgesia/No. tested (rat; subcutaneous 5.0 milligram/kilogram, 90 minutes after administration): 0/6
No. showing analgesia/No. tested (rat; subcutaneous 5.0 milligram/kilogram, 120 minutes after administration): 0/6
No. showing analgesia/No. tested (rat; subcutaneous 20.0 milligram/kilogram, 30 minutes after administration): 6/6
No. showing analgesia/No. tested (rat; subcutaneous 20.0 milligram/kilogram, 60 minutes after administration): 3/6
No. showing analgesia/No. tested (rat; subcutaneous 20.0 milligram/kilogram, 90 minutes after administration): 3/6
No. showing analgesia/No. tested (rat; subcutaneous 20.0 milligram/kilogram, 120 minutes after administration): 2/6

H--Tyr--Gly--Gly--Phe--Met--OH [methionine-enkephalin]
analgesia (rats): profound analgesia that is fully reversible by naloxone
block of electrically evoked contractions (mouse vas deferens): block electrically evoked contractions
block of electrically evoked contractions (guinea pig ileum): block electrically evoked contractions
inhibition of stereospecific receptor binding of 3H-naloxone (opiate receptor): inhibit the sterospecific receptor binding
